Converted amounts (≈) assume the structure as drawn. Where two headings read alike, the source gives them in different places.
System: boar spermatozoa
Experiment: Sperm motility inhibition assay (progressive and rapid motility)
Format: cell-based
Experimental: Furthermore, their physiological characters including their motility are influenced mainly by membrane potentials and ion fluxes. Thus, the change of sperm motility is able to sensitively indicate the substances causing mitochondrial membrane depolarization even at sublethal doses, which is undetectable with other cell lines. Motility of the spermatozoa was judged after exposure of 30 min and 24 h at room temperature with minor modification of a previously described method.
The sperm motility inhibition assay was done as reported by Andersson et al.. Commercial boar semen obtained from Figen Oy Finland extended in MR-A (Kubus, S.A., Madrid, Spain) containing 27 × 10^6 spermatozoa·mL^−1 was used. The purified OPA was diluted by serial dilutions in methanol obtaining two ranges of concentrations with 4-4 levels from 2500 μg mL^−1 to 250.0 μg mL^−1 and from 50 μg mL^−1 to 5.0 μg mL^−1, for short and long time exposures, respectively. Twenty μL of each dilution was administered to 2 mL of MR-A-diluted boar semen resulting approximately 100 times dilution of the original stock solutions; 20 μL of methanol was added to spermatozoa in the same way as a blank assay. The samples were incubated for 30 min and 24 h at room temperature for short and long term exposure assays, respectively. After exposure, motility was induced in the sperm cells by incubation in 37 °C for 5 min and shaking to provide the sperm cells with oxygen. […]
The above described subjective motility assay was calibrated with an automatic Hamilton Thorne sperm motility analyzer (HTM-S, ver. 7.2; Hamilton-Thorn Research, Danvers, MA, USA). […] Thus the protocol for assessing sperm tail beating as a measure of motility inhibition gave 99% similarity to measurements of the proportion of rapidly motile spermatozoa done with Hamilton Thorne sperm analyzer (HTM-S, ver. 7.2; Hamilton-Thorn Research, Danvers, MA, USA) Toxicity was expressed as the endpoint concentration of the OPA solution, where the progressive and rapid motility of the sperm cells were <50% of the vehicle exposed sperm cells. […]

**Q.** Which EC50 (0.5 h, boar spermatozoa, 30 min exposure at room temperature, read-out: Toxic endpoint EC50, Motility inhibition (30 min)) does the source give for `CC(C)=C[C@H]1C[C@H](C)[C@]2(CC[C@]3(C)C[C@H]4[C@H](C(=O)C[C@@]4(C)O)/C(C=O)=C\C[C@H]32)O1` [OPA, ophiobolin A] here?
**A.** ≤ 2.5 µg/mL

**Q.** What about the EC50 (24 h, read-out: Toxic endpoint EC50, Motility inhibition (24 h), boar spermatozoa, 24 h exposure at room temperature) of the same molecule?
**A.** 0.25 µg/mL (≈ 0.624 µM)

Source: paper PMC4179164, “Ophiobolin A from Bipolaris oryzae Perturbs Motility and Membrane Integrities of Porcine Sperm and Induces Cell Death on Mammalian Somatic Cell Lines” (Toxins, 2014)
